“Also recorded” adds a separate entry of the source. Peptide text beside a SMILES is read from it. * marks the point of attachment. X1 = CCC(C)(C)C(=O)C(=O)N1CCCC[C@H]1C(=O)O[C@H](CCc1ccccc1)c1cccc(OCC(=O)*)c1; NHTrityl = c1ccc(C(N*)(c2ccccc2)c2ccccc2)cc1; Acetyl(pyridin-2-yl) = O=C(Cc1ccccn1)*; Fmoc = O=C(OCC1c2ccccc2-c2ccccc21)*; ClZ = O=C(OCc1ccccc1Cl)*; Alloc = C=CCOC(=O)*
Legend:
[1] = Solubility of Aβ-binding peptides in organic solvents; conditions: for solubility of the peptide (in words): running text, organic solvents
Experimental: After cleavage from the resin with TFA, the solubles of the crude peptides were determined (ca. 3-5 mg/0.5-1.0 ml) in various solvents (LiCl/DMF, DMF or NMP, and/or mixtures with DCM/MeOH/CH3 CN/dioxane).
^a conditions: 3-5 mg peptide/0.5-1.0 mL.
^b conditions tested; NMP, DMF, DMF/LiCl, THF, CH3 CN, DCM, MeOH,

cyclophilin (Cyp) = conditions: cited from earlier work
[2] = Solubility of conjugates in organic solvents; conditions: running text
Aβ peptide = Aβ peptide (Homo sapiens, UniProt P05067); conditions: Tjernberg et al. 1996; cited from earlier work
nerve regeneration = conditions: NGF must be present; Lyons et al. 1994, Steine et al. 1997; cited from earlier work
[3] = Table 11.3, 3-5 mg peptide/0.5-1.0 mL, all free lysines are TFA salts
[4] = Table 11.1, crude peptides for CsA analog coupling, ca. 3-5 mg/0.5-1.0 ml
[5] = Table 11.1, ca. 3-5 mg/0.5-1.0 ml

Chain of Aβ peptide (P05067 672-713 limits assumed): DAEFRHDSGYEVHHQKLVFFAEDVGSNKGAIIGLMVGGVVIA

C=CCOC(=O)NCCCC[C@H](NC(=O)Cc1ccccn1)C(=O)N[C@@H](CC(C)C)C(=O)N[C@H](C(=O)N[C@@H](Cc1ccccc1)C(=O)N[C@@H](Cc1ccccc1)C(=O)N[C@@H](CCCCN)C(N)=O)C(C)C [11.40, Pyiidylacetate-K(Alloc)LVFFK-NH2] ({Acetyl(pyridin-2-yl)}-K(Alloc)LVFFK-NH2)
Solubility (solvent in which the peptide is soluble) [1, 3]: DMF | solubility of the peptide (in words) [1]: completely soluble in DMF as the double TFA salts

CC(C)C[C@H](NC(=O)[C@H](CCCCN)NC(=O)Cc1ccccn1)C(=O)N[C@H](C(=O)N[C@@H](Cc1ccccc1)C(=O)N[C@@H](Cc1ccccc1)C(N)=O)C(C)C [11.39, Pyridylacetate-KLVFF-NH2]
Solubility (solvent in which the peptide is soluble) [1, 3]: DMF | solubility of the peptide (in words) [1]: completely soluble in DMF as the double TFA salts

C=CCOC(=O)NCCCC[C@H](NC(=O)[C@H](CCCCN)NC(=O)OCC1c2ccccc2-c2ccccc21)C(=O)N[C@@H](CC(C)C)C(=O)N[C@H](C(=O)N[C@@H](Cc1ccccc1)C(=O)N[C@@H](Cc1ccccc1)C(N)=O)C(C)C [11.35, Fmoc-KK(Alloc)LVFF-NH2] (Fmoc-KK(Alloc)LVFF-NH2)
Solubility grade in LiCl/DMF or LiCl/NMP [1, 3]: medium | solubility of the peptide (in words) [1]: insoluble in DMF/LiCl

[MeLeu(3-OH)^1, MeAla^4,6 ]-CsA
binding to cyclophilin (in words) (cyclophilin (Cyp)): retains tight-binding to cyclophilin

CC(=O)N[C@@H](CCC(=O)O)C(=O)N[C@@H](CCCCNC(=O)OCc1ccccc1Cl)C(=O)N[C@@H](CC(C)C)C(=O)N[C@H](C(=O)N[C@@H](Cc1ccccc1)C(=O)N[C@@H](Cc1ccccc1)C(N)=O)C(C)C [11.29, Ac-EK(2Cl-Cbz)LVFF-NH2] (Ac-EK(ClZ)LVFF-NH2)
Solubility (solvent in which the peptide is soluble) [1, 4]: LiCl/DMF | solubility of the peptide (in words) [1]: completely soluble only in LiCl/DMF | solubility of the peptide (in words) ([1]; listed as Ac-EK(2Cl-Cbz)LVFF-NH2): increased solubility in DMF

CC(C)C[C@H](NC(=O)[C@H](CCCCNC(=O)OCc1ccccc1Cl)NC(=O)OCC1c2ccccc2-c2ccccc21)C(=O)N[C@H](C(=O)N[C@@H](Cc1ccccc1)C(=O)N[C@@H](Cc1ccccc1)C(=O)O)C(C)C [11.26, Fmoc-K(2Cl-Cbz)LVFF-OH]
Solubility (solvent in which the peptide is soluble) [1, 4]: DMF | solubility of the peptide (in words) [1]: completely soluble in DMF after a short period of vortexing

CC(C)C[C@H](NC(=O)[C@H](CCCCNC(=O)OCc1ccccc1Cl)NC(=O)[C@H](CCC(=O)O)NC(=O)OCC1c2ccccc2-c2ccccc21)C(=O)N[C@H](C(=O)N[C@@H](Cc1ccccc1)C(=O)N[C@@H](Cc1ccccc1)C(N)=O)C(C)C [11.28, Fmoc-EK(2Cl-Cbz)LVFF-NH2] (Fmoc-EK(ClZ)LVFF-NH2)
Solubility (solvent in which the peptide is soluble) [1, 4]: DMF | solubility of the peptide (in words) [1]: soluble in neat DMF without added LiCl

CC(=O)N[C@@H](CCC(N)=O)C(=O)N[C@@H](CCCCNC(=O)OCc1ccccc1Cl)C(=O)N[C@@H](CC(C)C)C(=O)N[C@H](C(=O)N[C@@H](Cc1ccccc1)C(=O)N[C@@H](Cc1ccccc1)C(=O)O)C(C)C [11.23, Ac-QK(2Cl-Cbz)LVFF-OH]
Solubility grade in LiCl/DMF or LiCl/NMP [1, 5]: medium | solubility of the peptide (in words) [1]: poorly soluble in all solvents including LiCl/DMF; also recorded: sparingly soluble in LiCl/DMF

CC(C)C[C@H](NC(=O)[C@H](CCCCNC(=O)OCc1ccccc1Cl)NC(=O)[C@H](CCC(=O)NC(c1ccccc1)(c1ccccc1)c1ccccc1)NC(=O)OCC1c2ccccc2-c2ccccc21)C(=O)N[C@H](C(=O)N[C@@H](Cc1ccccc1)C(=O)N[C@@H](Cc1ccccc1)C(=O)O)C(C)C [11.25, Fmoc-Q(Trt)K(2Cl-Cbz)LVFF-OH] (Fmoc-E(NHTrityl)K(ClZ)LVFF-OH)
Solubility (solvent in which the peptide is soluble) [1, 4]: Hot NMP | solubility of the peptide (in words) [1]: soluble in only hot NMP and remained cloudy in LiCl/DMF

CC(=O)N[C@@H](CCCCNC(=O)OCc1ccccc1Cl)C(=O)N[C@@H](CC(C)C)C(=O)N[C@H](C(=O)N[C@@H](Cc1ccccc1)C(=O)N[C@@H](Cc1ccccc1)C(=O)O)C(C)C [11.27, Ac-K(2Cl-Cbz)LVFF-OH]
Solubility (solvent in which the peptide is soluble) [1, 4]: DMF | solubility of the peptide (in words) [1]: soluble in DMF but requires a longer vortexing period | solubility of the peptide (in words) ([1]; listed as Ac-K(2Cl-Cbz)LVFF-OH): increased solubility in DMF

C=CCOC(=O)NCCCC[C@H](NC(=O)OCC1c2ccccc2-c2ccccc21)C(=O)N[C@@H](CC(C)C)C(=O)N[C@H](C(=O)N[C@@H](Cc1ccccc1)C(=O)N[C@@H](Cc1ccccc1)C(=O)N[C@@H](CCCCNC(=O)COc1cccc([C@@H](CCc2ccccc2)OC(=O)[C@@H]2CCCCN2C(=O)C(=O)C(C)(C)CC)c1)C(N)=O)C(C)C [11.41] (Fmoc-K(Alloc)LVFFK(X1)-NH2)
solubility of the conjugate (in words) [2]: not completely soluble in DCM, DCM/MeOH, or MeOH

C=CCOC(=O)NCCCC[C@H](NC(=O)Cc1ccccn1)C(=O)N[C@@H](CC(C)C)C(=O)N[C@H](C(=O)N[C@@H](Cc1ccccc1)C(=O)N[C@@H](Cc1ccccc1)C(=O)N[C@@H](CCCCNC(=O)COc1cccc([C@@H](CCc2ccccc2)OC(=O)[C@@H]2CCCCN2C(=O)C(=O)C(C)(C)CC)c1)C(N)=O)C(C)C [10.9, Pyridyl acetyl-K(alloc)LVFFK-NH2 /FKBP inhibitor conjugate] ({Acetyl(pyridin-2-yl)}-K(Alloc)LVFFK(X1)-NH2)
solubility of the conjugate (in words) [2]: methanol soluble salt

Ac-QKLVFF-NH2
fibril formation (in words) (Aβ peptide): binds to and inhibits fibril formation

CC(=O)N[C@@H](CCC(=O)NC(c1ccccc1)(c1ccccc1)c1ccccc1)C(=O)N[C@@H](CCCCNC(=O)OCc1ccccc1Cl)C(=O)N[C@@H](CC(C)C)C(=O)N[C@H](C(=O)N[C@@H](Cc1ccccc1)C(=O)N[C@@H](Cc1ccccc1)C(=O)O)C(C)C [11.24, Ac-Q(Trt)K(2Cl-Cbz)LVFF-OH] (Ac-E(NHTrityl)K(ClZ)LVFF-OH)
Solubility grade in LiCl/DMF or LiCl/NMP [1, 5]: medium | solubility of the peptide (in words) [1]: no improvement in solubility is observed

CC(C)C[C@H](NC(=O)[C@H](CCCCN)NC(=O)OCC1c2ccccc2-c2ccccc21)C(=O)N[C@H](C(=O)N[C@@H](Cc1ccccc1)C(=O)N[C@@H](Cc1ccccc1)C(N)=O)C(C)C [11.37, Fmoc-KLVFF-NH2]
Solubility (solvent in which the peptide is soluble) [1, 3]: DMF | solubility of the peptide (in words) [1]: completely soluble in DMF

C=CC[C@@H]1/C=C(\C)C[C@H](C)C[C@H](OC)[C@H]2O[C@@](O)(C(=O)C(=O)N3CCCC[C@H]3C(=O)O[C@H](/C(C)=C/[C@@H]3CC[C@@H](O)[C@H](OC)C3)[C@H](C)[C@@H](O)CC1=O)[C@H](C)C[C@@H]2OC [FK506]
significant neurotrophic activity at concentrations as low as (nerve regeneration): 1 pM | binding to cyclophilin (in words) (cyclophilin (Cyp)): does not bind to Cyp

C=CCOC(=O)NCCCC[C@H](NC(=O)OCC1c2ccccc2-c2ccccc21)C(=O)N[C@@H](CC(C)C)C(=O)N[C@H](C(=O)N[C@@H](Cc1ccccc1)C(=O)N[C@@H](Cc1ccccc1)C(=O)N[C@@H](CCCCN)C(N)=O)C(C)C [11.36, Fmoc-K(Alloc)LVFFK-NH2] (Fmoc-K(Alloc)LVFFK-NH2)
Solubility (solvent in which the peptide is soluble) [1, 3]: LiCl/DMF | solubility of the peptide (in words) [1]: completely soluble in LiCl/DMF
